Patent US5643868A, “Method of treating or preventing type 1 diabetes by oral administration of insulin” (Autoimmune, Inc., priority 1995, dated 1997)
Several values for one entry are separate records, joined by “and”; a condition that tells them apart may be missing. Identical values can stand only once. Entries after “also recorded” stand apart in the source; their conditions may differ.

Legend:
Assay type in all cases: in vivo
[1] = test system: NOD mice; test: Glucose post oral insulin in fasting 7 week NOD mice (Example 2); settings: for blood glucose over the next 24 hours: animals in fasting state; for blood glucose after feeding: fasting 7 week old mice
Experimental: In order to determine whether any endocrinologic (i.e. direct lowering of blood sugar) effects occurred following the feeding of insulin, 7 week old NOD mice (5 mice per group) were fed 1 mg of porcine insulin or 1 mg of myelin basic protein (obtained from Pel Freez, Rogers, Ark.) as a control protein. Blood glucose was then measured over the next 24 hour period. As a positive control, a separate group of animals were injected subcutaneously with 20 micrograms of Porcine insulin. All animals were kept in the fasting state.

[2] = test system: NOD mice; test: Treatment of initial stages of diabetes in NOD mice (Example 5); settings: 0 to 1 mg insulin, oral and aerosol, hyperglycemic mice from weeks 12-20 of age
Experimental: Insulin (0 to 1 mg as in Examples 1 and 2) will be administered to NOD mice which are suffering from hyperglycemia in an oral and aerosol form. The treatments will begin by weeks 12-20 of age, by which the serum glucose levels are at hyperglycemic concentrations in a certain percentage of animals prior to onset of diabetes.

[3] = test system: NOD mice; test: Preliminary experiments: insulitis in NOD mice fed insulin; settings: fed 1 mg of insulin; data not shown
Description: Therefore, oral administration of insulin to NOD mice appeared to be affecting the infiltration of immune system cells into the pancreas and thus halting disease progression by preserving beta cell function.

[4] = test system: NOD (non-obese diabetic) mice; test: Effect of feeding porcine insulin on spontaneous diabetes in NOD mice (Example 1)
Description: NOD (non-obese diabetic mice) were obtained from Taconic Laboratories (Germantown, Mass.) at 4 weeks of age. There were a total of 30 animals in each of the groups mentioned below at the beginning of the experiment. At 41/2 weeks of age, animals were orally administered Porcine insulin (Novo Laboratories, Danbury, Conn.). Each animal received two treatments orally twice a week until 9 weeks of age. The mice were fed either saline (control) or 10 micrograms, 100 micrograms, or 1 milligram of Porcine insulin. The animals were fed (gavaged) with an 18 gauge ball-point needle (Popper and Sons, Inc., New Hyde Park, N.Y.). Beginning at 10 weeks the animals were then fed once a week for a total of 33 weeks. Beginning at 12 weeks the urine was tested weekly for the presence of glucose using Glucosuria test tape (Eli Lilly, Indianapolis, Ind.). If an animal tested 3+ or higher on the glucose urine test, a serum sample was taken and blood glucose measured using a glucose analyzer (Beckman). If the blood glucose was 220 or higher, the animals were classified as diabetic and then sacrificed.

[5] = test system: NOD mice; test: Effect of aerosol administration of insulin on diabetes in NOD mice (Example 4); settings: 0 to 1 mg insulin in aerosol form by nebulizer
Experimental: Insulin (0 to 1 mg as in Examples 1 and 2) will be administered to NOD mice as described above in Examples 1 and 2 except in aerosol form by nebulizer.

Substance: myelin basic protein
- blood glucose over the next 24 hours ([1]; 1 mg fed orally): gradual decrease in blood glucose
- blood glucose after feeding ([1]; 1 mg fed orally): no drop in the blood glucose

Substance: insulin
- beta cell function [2]: preservation of beta cell function
- serum glucose concentrations [2]: reduction in serum glucose concentrations to near normal levels
- endocrinologic (metabolic) effects of feeding ([1]; 1 mg fed orally): no endocrinologic (metabolic) effects
- blood glucose over the next 24 hours ([1]; 1 mg fed orally): gradual decrease in blood glucose
- blood glucose after feeding ([1]; 1 mg fed orally): no drop in the blood glucose
- decrease in the glucose level ([1]; 20 micrograms porcine insulin injected subcutaneously (positive control), fasting): approximately 80 mg %
- period over which the drop in glucose persisted ([1]; 20 micrograms porcine insulin subcutaneously, fasting): 4 h
- inflammatory immune system cells surrounding the pancreas (insulitis) vs PBS-fed mice [3]: fewer inflammatory immune system cells surrounding the pancreas
- development of diabetes ([4]; 1 mg porcine insulin fed orally (gavage), diabetic = blood glucose 220 or higher): none of the mice went on to develop diabetes; also recorded: no diabetes developed in any of the animals; also recorded: None of the animals developed diabetes
- development of diabetes ([4]; 10 micrograms porcine insulin fed orally): diabetes developed
- incidence of diabetes, all oral doses tested ([4]; 10 micrograms, 100 micrograms, 1 mg oral, dose-dependent): lower incidence of diabetes at all doses; also recorded: reduced the numbers of these mice which subsequently went on to develop diabetes
- development of diabetes ([4]; 100 micrograms porcine insulin fed orally): diabetes developed
- blood sugar of individual animals which developed diabetes ([4]; fed 10 micrograms of insulin): 330 mg/dL and 420 mg/dL and 315 mg/dL and 459 mg/dL and 520 mg/dL and 487 mg/dL
- blood sugar of individual animals that became diabetic ([4]; fed 100 micrograms of insulin): 500 mg/dL and 290 mg/dL and 600 mg/dL and 450 mg/dL
- treated animals that failed to develop diabetes ([4]; highest dose of oral insulin (1 mg)): 100%
- prevention of symptoms (hyperglycemia) of Type 1 diabetes [5]: effective in preventing the manifestation of symptoms
